Patent US10201558B2, “Compositions of selenoorganic compounds and methods of use thereof” (Alltech, Inc., priority 2014, dated 2019)

Legend:
APOE = assay: QRT-PCR of APOE mRNA in IMR-32 cells (normal, control KD, FOXO4 KD); type: cell-based, human; settings: 24 hours
Experimental: IMR-32 cells were cultured on 12-well plates for 24 hours and then incubated with FOXO4 siRNA lentiviruses (SC-29650V, Santa Cruz) or control siRNA lentiviruses (sc-108080, Santa Cruz) in the presence of Polybrene (5 μg/ml, Santa Cruz) for 24 hours according to the manufacturer's protocol. These lentiviral siRNA-transfected cells were amplified in normal media for 3 days and then incubated with puromycin for 9-14 days to obtain the stable Control KD (stably transfected with the control siRNAs) and FOXO4KD (stably transfected with Foxo4 siRNAs) cells. These control and Foxo4 KD cells were subjected to cell survival, mitochondrial potential and RNA analysis.
(§1) Human IMR-32 cells were seeded on gelatinized 6-well (6.5×10^5 cells/well) or 24-well (1.3×10^5 cells/well) plates. Cells were treated with control (0 ppb) or various compounds for 6 hours or 24 hours. Total RNA from these cells was isolated using Trizol (Invitrogen) according to the manufacturer's protocol, and then incubated with DNase I to remove any potential contaminated genomic DNA. Then RNA samples were subjected to real-time PCR analysis using the Applied-Bioscience's RT kit and predesigned Taqman probes (Invitrogen), as described previously (Lan et al EMBO J 2003). The mRNA levels of UCP1, UCP2, UCP3, SLC25A27 (UCP4), SLC25A14 (UCP5), PSEN1, Nicastrin, GSK3B, MAPK11-14, PPARG, APOE, RCAN1, RCAN1.1, G6PC, INSR, IGF1R and FOXO4 were measured. Three to six samples were analyzed in each treatment group. Data were normalized by Actin B (ACTB) or Glyceraldehyde Phosphate Dehydrogenase (GAPDH) mRNA levels in each sample and are presented as mean±SEM of 3-6 samples.
To explore this possibility, IMR-32 cells were treated with 150 ppb Compound C, Compound D or Compound E (150 ppb) for 6 hours and 24 hours, and then subjected to Western blot and QRT-PCR analyses. […] Therefore, Compound C and Compound D are downregulators of PPARG in IMR-32 cells at both mRNA and protein levels. […]

[1] = tested on: Zic1-5, Foxp2, Drd1a, Tac1, Sez6, Penk, Dlx5, Rarb, Meis2, Ddx5, Gpr88, Pde10a, Akap5, Isl1; assay: QRT-PCR of Zic genes and brain development/neuronal function genes in APP/PS1 mouse brains; type: in vivo; settings: Compound C diet vs control diet
Experimental: Male APPΔNLh/ΔNLh×PS1P246 L/246 L knock-in model mice of Alzheimer's disease (abbreviated APP/PS1) were genotyped using standard primers for human APP (Amyloid Precursor Protein) and human PS1 (PSEN1). These APP/PS1 mice starting at the age of 6 months, were fed either a control diet containing normal levels of selenium (0.3 ppm from plant and inorganic selenium salt sources) or an experimental diet containing Compound C (the control diet to which was added 1 ppm Se from Compound C) for 6 months. […]
Approximately 10 mg brain sample was homogenized with a Qiagen TissueRuptor (Qiagen, Valencia, Calif.) and total RNA was extracted using an RNeasy Mini kit (Qiagen), following the protocol recommended by the company. […] Integrity and purity of isolated RNA was assessed using a NanoDrop ND-1000 spectrophotometer (Thermo Scientific, Wilmington, Del.) and further confirmed with an Agilent 2100 Bioanalyzer System (Agilent Technologies, Santa Clara, Calif.).
RNA samples were subjected to real-time PCR analysis using the Applied-Bioscience's RT kit and predesigned Taqman probes (Invitrogen), as described previously (Lan et al EMBO J 2003). Three to six samples were analyzed in each group. […]

IGF1R = assay: QRT-PCR of IGF1R mRNA in IMR-32 cells; type: cell-based, human; settings: 75 ppb and 150 ppb, 24 hours
Experimental: as §1
(§2) To examine whether or not Compound C can regulate INSR/IGF1R signaling in IMR-32 cells, QRT-PCR analysis was performed to measure INSR and IGF1R mRNA levels. […] Mean±SEM, n=4. The * refers to a p value <0.05 when compared to the control group (0 ppb).

INSR = assay: QRT-PCR of INSR mRNA in IMR-32 cells; type: cell-based, human; settings: 75 ppb and 150 ppb, 24 hours
Experimental: as §1, §2

insoluble Aβ1-42 = assay: ELISA of insoluble (FA-soluble) Aβ1-42 in the brains of APP/PS1 mice; type: in vivo, mouse; settings: diet with 1 ppm Se from Compound C, 6 to 12 months of age, vs control mice
Experimental: Male APPΔNLh/ΔNLh×PS1P246 L/246 L knock-in model mice of Alzheimer's disease (abbreviated APP/PS1) were genotyped using standard primers for human APP (Amyloid Precursor Protein) and human PS1 (PSEN1). These APP/PS1 mice starting at the age of 6 months, were fed either a control diet containing normal levels of selenium (0.3 ppm from plant and inorganic selenium salt sources) or an experimental diet containing Compound C (the control diet to which was added 1 ppm Se from Compound C) for 6 months.
At 12 months of age, the mice were euthanized and the brains quickly removed, the cerebellum isolated and the hemispheres snap-frozen in liquid nitrogen and then stored at −80° C. for further immunohistochemistry (IHC), protein and RNA analysis. All procedures conducted on these animal studies were pre-approved by the University of Kentucky IACUC committee.
Frozen hemispheres of control- and Compound C-treated APP/PS1 mice were weighed and homogenized in PBS buffer. Insoluble Aβ fractions (formic acid (FA)-soluble fractions) were extracted from the homogenates using standard serial extraction protocols as described previously (Lovell et al, Free Radic Biol Med 2009; 46:1527-33) Insoluble Aβ1-42 levels (in the FA soluble fraction) were determined using standard sandwich ELISAs (Invitrogen), according to the manufacturer's procedure. […]

C[Se]C[C@H]1O[C@@H](n2cnc3c(N)ncnc32)C(O)C1O (stereo in doubt) [Compound C, 5′-deoxy-5′-methylselenoadenosine]
APOE mRNA expression (APOE; FOXO4KD cells, 75 ppb and 150 ppb): not significantly altered
APOE mRNA levels (APOE; IMR-32 cells, 150 ppb): significantly decreased
APOE mRNA levels (APOE; control normal cells, 75 ppb and 150 ppb): attenuated
expression of Foxp2, Drd1a, Tac1, Sez6, Penk, Dlx5, Rarb, Meis, Ddx5, Gpr88, Pde10a, Isl1 and Akap5 by QRT-PCR [1]: significantly elevated
expression of Zic1, Zic2, Zic3, Zic4 and Zic5 by QRT-PCR [1]: significantly elevated
IGF1R mRNA expression levels (IGF1R): downregulated
INSR mRNA expression levels (INSR): downregulated
reduction of FA-soluble Aβ1-42 levels in the brains (insoluble Aβ1-42): about 30%
